Laboratory results taken from patent publication US9284283B2, “Macrocyclic compounds for modulating IL-17” (ENSEMBLE THERAPEUTICS CORPORATION, priority 2012, dated 2016).

Molecular target: T1, biotinylated human IL-17 (binding to IL17R/Fc) (Homo sapiens, UniProt Q16552)
T1 construct: purchased R&D Systems 317-ILB (IL-17, biotinylated); 177-IR (IL17R/Fc)
T1 sequence (Q16552 20-155 limits assumed): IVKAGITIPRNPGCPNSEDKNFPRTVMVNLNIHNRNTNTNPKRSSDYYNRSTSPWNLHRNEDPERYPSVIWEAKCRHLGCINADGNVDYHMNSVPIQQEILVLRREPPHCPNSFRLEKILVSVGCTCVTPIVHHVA
Assay: IL-17 competition ELISA II (captured IL17R/Fc, biotinylated IL-17)
Procedure, shortened: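 Anti-human IgG-coated plates captured IL17R/Fc (10 nM), then compound (5-fold dilutions from 1 μM) and biotinylated human IL-17 (20 nM stock) were added for 30 min at room temperature in PBST. Bound IL-17 detected by streptavidin-HRP/TMB at 450 nm. IC50 from 4-parameter logistic fit between no-competitor and blank controls.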

IC50 [nM] | Structure (SMILES)
> 10000 | C[C@H]1NC(=O)[C@@H](CCCCNC(=O)[C@H](Cc2ccccc2Cl)NC(=O)C(F)(F)c2ccccc2)NC(=O)CC2(CCCC2)CC(=O)NCCCCCNC1=O [Compound 606]
> 10000 | C[C@H]1NC(=O)[C@@H](CCCNC(=O)[C@H](Cc2ccccc2Cl)NC(=O)C(F)(F)c2ccccc2)NC(=O)CC2(CCCC2)CC(=O)NCCCCCNC1=O [Compound 608]
> 10000 | C[C@H]1NC(=O)[C@@H](CCNC(=O)[C@H](Cc2ccccc2Cl)NC(=O)C(F)(F)c2ccccc2)NC(=O)CC2(CCCC2)CC(=O)NCCCCCNC1=O [Compound 610]
< 100 | CN1CCOCCOCCNC(=O)[C@@H](Cc2ccc(NC(=O)[C@H](CC3CCCCC3)NC(=O)C(F)(F)c3ccccc3)cc2)NC(=O)CC2(CCCC2)CC1=O [Compound 613]
< 100 | CN1CCOCCOCCNC(=O)[C@@H](Cc2ccc(NC(=O)[C@H](CC3CCCCC3)NC(=O)Cc3ccc(N(C)C)cc3)cc2)NC(=O)CC2(CCCC2)CC1=O [Compound 614]
< 100 | CN1CCOCCOCCNC(=O)[C@@H](Cc2ccc(NC(=O)[C@H](CC3CCC3)NC(=O)C(F)(F)c3ccccc3)cc2)NC(=O)CC2(CCCC2)CC1=O [Compound 615]
< 100 | C[C@H]1NC(=O)[C@@H](Cc2ccc(NC(=O)[C@H](Cc3ccccc3Cl)NC(=O)Cc3ccc(F)cc3)cc2)NC(=O)CC2(CCCCC2)NC(=O)CCCCCCNC1=O [Compound 621]
100 to 1000 | C[C@H]1NC(=O)[C@@H](Cc2ccc(NC(=O)[C@H](Cc3ccccc3Cl)NC(=O)Cc3ccc(F)cc3)cc2)NC(=O)CC2(CCOCC2)NC(=O)CCCCCCNC1=O [Compound 622]

The remaining lines, values behind:

Structure (SMILES) | IC50 [nM]
C[C@H]1NC(=O)[C@@H](CCCNC(=O)[C@H](Cc2ccccc2Cl)NC(=O)Cc2ccc(F)cc2)NC(=O)CC2(CCCC2)CC(=O)NCCCCCNC1=O [Compound 607] | > 10000
C[C@H]1NC(=O)[C@@H](CCNC(=O)[C@H](Cc2ccccc2Cl)NC(=O)Cc2ccc(F)cc2)NC(=O)CC2(CCCC2)CC(=O)NCCCCCNC1=O [Compound 609] | > 10000
CN1CCOCCOCCNC(=O)[C@@H](Cc2ccc(NC(=O)[C@@H](NC(=O)C(F)(F)c3ccccc3)C3CCCCC3)cc2)NC(=O)CC2(CCCC2)CC1=O [Compound 611] | < 100
CN1CCOCCOCCNC(=O)[C@@H](Cc2ccc(NC(=O)[C@H](CC3CCC3)NC(=O)Cc3ccc(N(C)C)cc3)cc2)NC(=O)CC2(CCCC2)CC1=O [Compound 616] | < 100
C[C@H]1NC(=O)[C@@H](Cc2ccc(NC(=O)[C@H](Cc3ccccc3Cl)NC(=O)Cc3ccc(F)cc3)cc2)NC(=O)CC2(CCCC2)NC(=O)CCCCCNC1=O [Compound 617] | < 100
C[C@H]1NC(=O)[C@@H](Cc2ccc(NC(=O)[C@H](Cc3ccccc3Cl)NC(=O)Cc3ccc(F)cc3)cc2)NC(=O)CC2(CCCC2)NC(=O)CCCCCCNC1=O [Compound 618] | < 100
C[C@H]1NC(=O)[C@@H](Cc2ccc(NC(=O)[C@H](Cc3ccccc3Cl)NC(=O)Cc3ccc(F)cc3)cc2)NC(=O)CC2(CCCC2)NC(=O)CCCCCCCNC1=O [Compound 619] | < 100
C[C@H]1NC(=O)[C@@H](Cc2ccc(NC(=O)[C@H](Cc3ccccc3Cl)NC(=O)Cc3ccc(F)cc3)cc2)NC(=O)CC(C)(C)NC(=O)CCCCCCNC1=O [Compound 620] | < 100
C[C@H]1NC(=O)[C@@H](Cc2ccc(NC(=O)[C@@H](NC(=O)Cc3ccc(F)cc3)C3CCCCC3)cc2)NC(=O)CC2(CCCC2)CC(=O)N(C)CCCCCN(C)C1=O [Compound 623] | < 100
COC(=O)N[C@H](C(=O)Nc1ccc(C[C@H]2NC(=O)CC3(CCCC3)CC(=O)N(C)CCOCCOCCNC2=O)cc1)C1CCCCC1 [Compound 624] | > 10000
COC(=O)N[C@H](C(=O)Nc1ccc(C[C@H]2NC(=O)CC3(CCCC3)CC(=O)N(C)CCCCCN(C)C(=O)[C@@H](C)NC2=O)cc1)C1CCCCC1 [Compound 625] | 100 to 1000
C[C@H]1NC(=O)[C@@H](Cc2ccc(NC(=O)[C@H](Cc3ccccc3Cl)NC(=O)Cc3cccnc3)cc2)NC(=O)CC2(CCCC2)CC(=O)N(C)CCCCCN(C)C1=O [Compound 628] | < 100
